Laboratory results reported in patent US8178688B2, “Benzamidine derivatives, process for the preparation thereof and pharmaceutical composition comprising the same” (Dong Wha Pharmaceutical Co., Ltd., priority 2004, dated 2012).
Read-outs that look alike come from different tables or passages of the source.

System: osteoclast differentiation
Test: Inhibitory effects on osteoclast differentiation (co-culture of bone marrow cells with osteoblast, TRAP staining)
Assay type: cell-based, mice
Details: Mus musculus, Osteoclast, 168 h, read-out: % inhibitory activity on osteoclastogenesis
Procedure: The effect of benzamidine derivatives of the present invention on osteoclast proliferation and differentiation process was evaluated via co-culture with osteoblast.
Tibia and Femora were aseptically ectomized from male ddY mice of 6-8 weeks to harvest bone marrow cells by using a syringe (21G, Korea Green Cross).
The bone marrow cells were suspended in 5 mL α-MEM medium (Gibco BRL Co.) containing sodium bicarbonate (2.0 g/L), streptomycin (100 mg/L) and penicillin ([…]). The harvested cells were centrifuged at 600×g for 5 mins to collect the whole quantity. To remove the red blood cells within bone marrow cells, 3 mL of Tris HCl (0.83% NH4Cl, pH7.5) was added and well mixed. After centrifuging above cells, the numbers of bone marrow cells were counted and then, the bone marrow cells were immediately used for co-culture system with osteoblast.
The calvaria were aseptically ectomized from neonate ICR mice of 1˜2 days, washed with PBS solution and incubated with a mixture of enzyme solution (0.2% collagenase and 0.1% dispase) at 37° C. gentle shaker. This procedure was sequentially repeated (10, 10, 10, 20, 20 and 20 mins), and then the calvaria cells having the characteristics of osteoblast mostly released from III-VI digestion groups were collected and washed with the medium (serum-free α-MEM). The washed cells were cultivated in α-MEM medium containing 10% FBS for 2˜3 days. After subculturing, these cells were used for this experiment, and diluted to reach the concentration of 1×10^6 cell/mL for storage at −70° C.
Benzamidine derivatives of the present invention were dissolved in a sterile distilled water or ethanol to make desired concentrations following dilution. The final volume of specimen added to the medium was determined at the ratio of 1:1000.
Bone marrow cells prepared, in the above and osteoblast from calvaria were co-cultured for osteoclast differentiation. Both bone marrow cells (25,000 cells/cm^2) and osteoblast (10,000 cells/cm^2) were plated on a 96 well plate in α-MEM medium containing FBS with specimen, and then cultured with test materials for 7 days. Differentiation factors, such as dexamethasone (10^−7M) and vitamin D3 (10^−8M), were also continuously added to the medium from the first day of cultivation. The medium was changed with fresh media containing a mixture of specimens and differentiation factors every 2˜3 day.
TRAP was used as a marker to measure osteoclast in consideration of its characteristics showing a positive reaction to TRAP staining solution. TRAP staining solution was prepared in a manner that 5 mg of naphtol AS-MS phosphate (sigma N-4875), a substrate and 25 mg of coloring agent (Fast Red Violet LB salt) were dissolved in N,N-dimethylformamide (about 0.5 mL), 0.1N NaHCO3 buffer solution (50 mL) containing 50 mM tartaric acid was added, and the reaction mixture was stored at refrigerator prior to use.
After culturing the cells for 7 days, the medium was removed from the wells, the cells were once washed with PBS solution and fixed to PBS containing 10% formalin for 2˜5 mins. The cells were fixed again in a mixed solution of ethanol and acetone (1/1) for about 1 min, and dried off. The cells were further treated by TRAP staining solution for 15 mins and washed with PBS. The experimental results were measured by counting the number of osteoclasts with 3 or more nuclei showing TRAP-positive reaction under a microscopic examination. Each of tests was confirmed over three times for gaining more reliable data.
As shown in the following table 7, the inhibitory effect of each experimental group on the differentiation of osteoclast versus controls was expressed by inhibitory percentage value.

[1] = 1 m, co-culture of bone marrow cells and osteoblast, 7 days, TRAP-positive osteoclasts versus controls
[2] = 1 μm, co-culture of bone marrow cells and osteoblast, 7 days, TRAP-positive osteoclasts versus controls

SMILES: CCc1sc(NC(=O)c2cccnc2)nc1-c1ccc(OCCCCCOc2ccc(C(=N)NO)cc2)cc1 [Example 101, N-hydroxy-4-(5-[4-(5-ethyl-2-(3-pyridylcarbonyl)amino-1,3-thiazol-4-yl)phenoxy]pentoxy)-benzamidine]
- inhibition at 1 µM [1]: 43.7%

SMILES: CCCCc1sc(N(C)CCN2CCOCC2)nc1-c1ccc(OCCCCCOc2ccc(C(=N)NO)cc2)cc1 [Example 144, N-hydroxy-4-(5-[4-(5-butyl-2-(methyl-(2-morpholinoethyl)amino)-1,3-thiazol-4-yl)phenoxy]pentoxy)-benzamidine]
- inhibition at 1 µM [1]: 94.4%

SMILES: CC(C)c1sc(N)nc1-c1ccc(OCCCCCOc2ccc(C(=N)NO)cc2)cc1 [Example 61, N-hydroxy-4-(5-[4-(2-amino-5-isopropyl-1,3-thiazol-4-yl)phenoxy]pentoxy)-benzamidine]
- inhibition at 1 µM [2]: 0%

SMILES: CN1CCN(c2nc(-c3ccc(OCCCCCOc4ccc(C(=N)NO)cc4)cc3)c(CC3CCCC3)s2)CC1 [Example 170, N-hydroxy-4-(5-(4-[5-cyclopentylmethyl-2-(4-methylpiperazino)-1,3-thiazol-4-yl]phenoxy)-pentoxy)-benzamidine]
- inhibition at 1 µM [1]: 93.9%

SMILES: Cc1nc(-c2ccc(OCc3cccc(COc4ccc(C(=N)NO)cc4)c3)cc2)c(C(C)C)s1 [Example 209, N-hydroxy-4-(3-[4-(5-isopropyl-2-methyl-thiazol-4-yl)-phenoxymethyl]-benzyloxy)-benzamidine]
- inhibition at 1 µM [1]: 14.3%

SMILES: Cc1nc(-c2ccc(OCCCCCNc3cccc(C(=N)NO)c3)cc2)c(C(C)C)s1 [Example 195, N-hydroxy-3-(5-[4-(5-isopropyl-2-methyl-thiazol-4-yl)-phenoxy]-pentylamino)-benzamidine]
- inhibition at 1 µM [1]: 42.3%

SMILES: COCc1sc(C)nc1-c1ccc(OCCCCCOc2ccc(C(=N)NO)cc2)cc1 [Example 76, N-hydroxy-4-(5-[4-(5-methoxymethyl-2-methyl-1,3-thiazol-4-yl)phenoxy]pentoxy)-benzamidine]
- inhibition at 1 µM [1]: 99%

SMILES: Cc1nc(-c2ccc(OCCCCOc3ccc(C(=N)NO)cc3)cc2)c(C(C)C)s1 [Example 194, N-hydroxy-4-(4-[4-(5-isopropyl-2-methyl-1,3-thiazol-4-yl)phenoxy]butoxy)-benzamidine]
- inhibition at 1 µM [1]: 19.8%

SMILES: CCNc1nc(-c2ccc(OCCCCCOc3ccc(C(=N)NO)cc3)cc2)c(CC)s1 [Example 97, N-hydroxy-4-(5-[4-(5-ethyl-2-ethylamino-1,3-thiazol-4-yl)phenoxy]pentoxy)-benzamidine]
- inhibition at 1 µM [1]: 42.6%

SMILES: C=Cc1sc(-c2cccnc2)nc1-c1ccc(OCCCCCOc2ccc(C(=N)NO)cc2)cc1 [Example 79, N-hydroxy-4-(5-[4-(5-vinyl-2-(pyridin-3-yl)-1,3-thiazol-4-yl)phenoxy]pentoxy)-benzamidine]
- inhibition at 1 µM [1]: 96.4%

SMILES: CCCCc1sc(N(CC)CC)nc1-c1ccc(OCCCCCOc2ccc(C(=N)NO)cc2)cc1 [Example 150, N-hydroxy-4-(5-[4-(5-butyl-2-diethylamino-1,3-thiazol-4-yl)phenoxy]pentoxy)-benzamidine]
- inhibition at 1 µM [1]: 95.4%

SMILES: CCc1sc(N(C)Cc2cccnc2)nc1-c1ccc(OCCCOc2ccc(C(=N)NO)cc2)cc1 [Example 199, N-hydroxy-4-(3-[4-(5-ethyl-2-[methyl-(pyridin-3-yl-methyl)amino]-thiazol-4-yl)phenoxy]propoxy)-benzamidine]
- inhibition at 1 µM [1]: 82.9%

SMILES: CC(C)c1sc(C2CCCNC2)nc1-c1ccc(OCCCCCOc2ccc(C(=N)NO)cc2)cc1 (centres unmarked) [Example 83, N-hydroxy-4-(5-[4-(5-isopropyl-2-(piperidin-3-yl)-1,3-thiazol-4-yl)phenoxy]pentoxy)-benzamidine]
- inhibition at 1 µM: 23.8%

SMILES: Cc1nc(-c2ccc(OCCCOc3ccc(C(=N)NO)cc3)cc2)c(C(C)C)s1 [Example 193, N-hydroxy-4-(3-[4-(5-isopropyl-2-methyl-1,3-thiazol-4-yl)phenoxy]propoxy)-benzamidine]
- inhibition at 1 µM [1]: 54.1%

SMILES: CCCN(CCC)c1nc(-c2ccc(OCCCCCOc3ccc(C(=N)NO)cc3)cc2)c(CC2CCCC2)s1 [Example 149, N-hydroxy-4-(5-[4-(5-cyclopentylmethyl-2-dipropylamino-1,3-thiazol-4-yl)phenoxy]pentoxy)-benzamidine]
- inhibition at 1 µM [1]: 79.2%

SMILES: Cc1nc(-c2ccc(OCCCCCOc3ccc(C(=N)NO)c(F)c3)cc2F)c(C(C)C)s1 [Example 192, N-hydroxy-2-fluoro-4-(5-[3-fluoro-4-(5-isopropyl-2-methyl-1,3-thiazol-4-yl)-phenoxy]-pentoxy)-benzamidine]
- inhibition at 1 µM [1]: 70.5%

SMILES: CCS(=O)(=O)Nc1nc(-c2ccc(OCCCCCOc3ccc(C(=N)NO)cc3)cc2)cs1 [Example 85, N-hydroxy-4-(5-[4-(2-ethanesulfonylamino-1,3-thiazol-4-yl)phenoxy]pentoxy)-benzamidine]
- inhibition at 1 µM [1]: 5.3%

SMILES: CCc1sc(C(C)C)nc1-c1ccc(OCCCCCOc2ccc(C(=N)NO)cc2)cc1 [Example 19, N-hydroxy-4-(5-[4-(5-ethyl-2-isopropyl-1,3-thiazol-4-yl)phenoxy]pentoxy)-benzamidine]
- inhibition at 1 µM [2]: 42.6%

SMILES: Cc1nc(-c2ccc(OCCC(C)(O)CCOc3ccc(C(=N)NO)cc3)cc2)c(C(C)C)s1 (centres unmarked) [Example 179, N-hydroxy-4-(3-hydroxy-5-[4-(5-isopropyl-2-methyl-1,3-thiazol-4-yl)-phenoxy]-3-methyl-pentoxy)-benzamidine]
- inhibition at 1 µM [1]: 100%

SMILES: CC(C)Cc1sc(N2CCOCC2)nc1-c1ccc(OCCCCCOc2ccc(C(=N)NO)cc2)cc1 [Example 173, N-hydroxy-4-[5-[4-(5-isobutyl-2-morpholin-4-yl-1,3-thiazol-4-yl)phenoxy]pentoxy)-benzamidine]
- inhibition at 1 µM [1]: 9%

SMILES: CC(C)c1nc(-c2ccc(OCCCCCOc3ccc(C(=N)N)cc3)cc2)cs1 [Example 53, 4-(5-[4-(2-isopropyl-1,3-thiazol-4-yl)phenoxy]pentoxy)-benzamidine]
- inhibition at 1 µM [2]: 0%

SMILES: Cc1nc(-c2ccc(OCCCCCOc3ccc(C(=N)NO)cc3)cc2)c(CCCl)s1 [Example 42, N-hydroxy-4-(5-[4-(5-(2-chloro-ethyl)-2-methyl-1,3-thiazol-4-yl)phenoxy]pentoxy)-benzamidine]
- inhibition at 1 µM [2]: 90.9%

SMILES: CCc1sc(NS(=O)(=O)CC)nc1-c1ccc(OCCCCCOc2ccc(C(=N)NO)cc2)cc1 [Example 95, N-hydroxy-4-(5-[4-(2-ethanesulfonylamino-5-ethyl-1,3-thiazol-4-yl)phenoxy]pentoxy)-benzamidine]
- inhibition at 1 µM [1]: 47.1%

SMILES: Cc1nc(-c2ccc(OCCCCCN(C)c3ccc(C(=N)NO)cc3)cc2)c(C(C)C)s1 [Example 183, N-hydroxy-4-(5-[4-(5-isopropyl-2-methyl-1,3-thiazol-4-yl)-phenoxy]-pentyl-methyl-amino)-benzamidine]
- inhibition at 1 µM [1]: 65.6%

SMILES: CCCN1CCC(c2nc(-c3ccc(OCCCCCOc4ccc(C(=N)NO)cc4)cc3)c(C)s2)CC1 [Example 72, N-hydroxy-4-(5-[4-(5-methyl-2-(1-propyl-piperidin-4-yl)-1,3-thiazol-4-yl)phenoxy]pentoxy)-benzamidine]
- inhibition at 1 µM: 67.9%

SMILES: Cc1nc(-c2ccc(OCCCCCOc3ccc(C(=N)NO)cc3)cc2)c(Cc2ccccc2)s1 [Example 38, N-hydroxy-4-(5-[4-(5-benzyl-2-methyl-1,3-thiazol-4-yl)phenoxy]pentoxy)-benzamidine]
- inhibition at 1 µM [2]: 56.8%
